What was measured:
NRK cells [1] = experiment: Available nitric-oxide levels, CS NRK cell model; format: cell-based, rat; settings: 4-h CS (data not shown)
Description: Nitric oxide is a free radical that is well known to interact with superoxide to form peroxynitrite. It is generated by nitric-oxide synthase (NOS) and is an important signaling molecule in many physiological processes. Few reports have evaluated the effect of cold ischemia alone on NOS protein levels or activity.

[2] = tested on: mitochondrial respiratory complex I; experiment: Mitochondrial respiratory complex activity, rat kidney mitochondria after CS; settings: rat kidneys, 4-h CS, 100 μM
Procedure: (§1) All animals were treated according to the National Institutes of Health Guide for the Care and Use of Laboratory Animals and the University of Arkansas for Medical Sciences Institutional Animal Care and Use Committee guidelines. Male Fischer 344 inbred rats (Charles Rivers Laboratories, Inc., Wilmington, Mass.) weighing between 250 and 300 g were anesthetized with ethrane, followed by shaving and prepping with betadine. […] Bulldog clamps were placed on the aorta and vena cava (proximal and distal to the renal vessels) to prevent blood flow to the kidneys. A 22-gauge surgical needle was used to puncture the rat's aorta to flush the renal grafts with saline (10 ml per kidney) using a small catheter. Once the kidneys started to turn light brown (perfusion), another vent was formed in the vena cava to allow blood flow from the kidneys. Once both kidneys were completely flushed, the right kidney was recovered and served as a control (group 1), and the left kidney was exposed to CS alone for 4 h at 4° C. (group 2). In additional experiments, kidneys were flushed with saline through the aorta using a small catheter followed by flushing the right kidney with saline containing MitoQ (100 μM) and the left kidney with saline containing DecylTPP (100 μM) (10 ml per kidney). Tissues were recovered and stored in CS+MitoQ (100 μM; right kidney) or CS+DecylTPP (100 μM; left kidney) for 4 h at 4° C. (groups 3 and 4, respectively). A thin middle section from all of the kidneys were cut and immediately fixed in 10% formalin before being embedded in paraffin for sectioning (4 μm) and histological evaluation. The remaining portion of the kidneys were quickly frozen in liquid nitrogen and stored in −80° C. until needed for biochemistry analyses.
(§2) NRK cell and rat kidney mitochondria were isolated by centrifugation on a sucrose density gradient. The activity of mitochondrial respiratory complexes I, II, III, or IV were assayed spectrophotometrically using 100 μg of mitochondrial protein at 30° C. as previously described.

[3] = tested on: mitochondrial respiratory complex II; experiment: as above; settings: rat kidneys, 4-h CS, 100 μM
Procedure: as §1, §2

NRK cells [4] = experiment: Nitrotyrosine immunocytochemistry during CS; format: cell-based, rat; settings: 4 h CS, 1 μM
Procedure: Normal rat kidney proximal tubular cells (NRK-52E; American Type Culture Collection, Manassas, Va.) were maintained in six-well 100 or 150-mm, or 150-mm plates in a humidified incubator gassed with 5% CO2 and 95% air at 37° C. in DMEM (Invitrogen, Carlsbad, Calif.) containing 5% fetal calf serum (FCS). Cells were grown to 60% confluence and divided into four treatment groups: 1) untreated (Untx), 2) CS, 3) CS+MitoQ, and 4) CS+DecylTPP. Untreated cells remained at 37° C. in DMEM containing 5% FCS (group 1). CS was initiated by washing cells with cold PBS (Invitrogen) twice and storing them in UW/Viaspan solution alone (4 h at 4° C.) (group 2), CS+MitoQ (1 μM) (group 3), or CS+DecylTPP (1 μM) (group 4). In separate experiments, cells were exposed to CS plus RW by replacing UW solution alone or UW solution containing MitoQ or DecylTPP with DMEM containing 5% FCS overnight (18 h at 37° C.).
NRK cells (groups 1-4) were assessed for nitrotyrosine formation as previously described. […] Nitrotyrosine staining was evaluated and captured with equal exposure times using a Nikon Eclipse 800 microscope (40×oil). Images were quantified by averaging the mean intensity fluorescence of five random cells in three different fields using Nikon N is Elements software. Renal tissue sections were assessed for the presence of nitrotyrosine protein adducts by nitrotyrosine immunohistochemistry. […]

COC1=C(OC)C(=O)C(CCCCCCCCCC[P+](c2ccccc2)(c2ccccc2)c2ccccc2)=C(C)C1=O [MitoQ, mitoquinone]
available nitric-oxide levels (NRK cells [1]): no effect | complex I inactivation [2]: protected | complex II inactivation [3]: protected | attenuation of nitrotyrosine formation (NRK cells [4]): ~2 fold

— patent publication US9258995B2, “Organ cold storage composition and methods of use” (BOARD OF TRUSTEES OF THE UNIVERSITY OF ARKANSAS, priority 2009, dated 2016)
